Laboratory results taken from patent US20220387466A1, “COMPOUNDS AND PHARMACEUTICAL COMPOSITIONS FOR PREVENTION AND/OR TREATMENT OF DYSBIOSIS AND ANTIBACTERIAL ANTIDOTES FOR MICROBIOME-PROTECTION” (priority 2019, published 2022).
Where a name gives a salt, the structure may show the parent alone.

Experiments:
[1] = test system: B. uniformis; experiment: Prestwick library screen for microbiome-protective antibiotic antagonists (growth AUC z-scores); format: cell-based, Bacteroides uniformis; conditions: z-score of normalized growth AUC, two replicates
From the text: The inventors reasoned that it should be possible to identify drugs that selectively antagonize the effect of antibiotics on gut microbes, while retaining activity against pathogens. Therefore, the inventors screened the Prestwick library to identify antagonizing compounds to erythromycin or doxycycline on two abundant and prevalent gut microbes, B. vulgatus and B. uniformis.
Preparation of screening plates. The Prestwick Chemical Library was purchased from Prestwick Chemical Inc. and drugs were re-arrayed, diluted and stored in 96 well format as described before. The inventors prepared drug plates (2×drug concentration) in MGAM medium and stored them at −30° C. For each experiment, drug plates were thawed, supplemented with the respective antibiotic solution (freshly prepared in MGAM) and pre-reduced in the anaerobic chamber overnight. All rearranging and aliquoting steps were done using the Biomek FXP (Beckman Coulter) system.
Inoculation and screening conditions. Strains were grown twice overnight, the second overnight culture was diluted in MGAM to reach OD578 nm 0.04 (4×the desired starting OD). 25 μl of the diluted cultures were used to inoculate wells containing 50 μl of 2× concentrated Prestwick drug and 25 μl of the 4× concentrated antibiotic using the semi-automated, 96-well multi-channel pipette epMotion 96 (Eppendorf). Each well contained 1% DMSO, 20 μM of the Prestwick drug and a species-specific antibiotic concentration that was just inhibitory for the respective strain (0.625 μM for erythromycin, 0.04 μM doxycycline for B. uniformis and 0.08 μM doxycycline for B. vulgatus). Plates were sealed with breathable membranes (Breathe-Easy®) and OD578 was measured hourly after 30 sec of linear shaking with a microplate spectrophotometer (EON, Biotek) and an automated microplate stacker (Biostack 4, Biotek) fitted inside a custom-made incubator (EMBL Mechanical Workshop). Growth curves were collected up to 24 h. For each antibiotic, each species was screen in biological duplicates. All experiments included control wells of unperturbed growth (32 wells per run) and control wells for growth in the presence of the antibiotic only (8 wells per plate).
Analysis pipeline and hit calling: All growth curves within a plate were truncated at the transition time from exponential to stationary phase and converted to normalized AUCs using in-run control wells (no drug) as described before. The inventors then calculated z-scores based on these normalized AUCs, removed replicates with 8-fold differences in z-scores to eliminate noise effects, computed mean z scores across the two replicates and selected combinations with mean z-scores >3. This selection included 19 potential antibiotic antagonists and the inventors followed up on 14 of them (7 potential erythromycin and 7 potential doxycycline antagonists in either B. vulgatus or B. uniformis—see FIG. 4) in independent experiments.

[2] = test system: B. uniformis; experiment: Validation of microbiome-protective antagonists (concentration-dependent growth rescue); format: cell-based, Bacteroides uniformis; conditions: antagonist gradient, normalized AUC >0.25 = growth rescue
Experimental: (§1) Validation of microbiome-protective antagonists: In a first step, the inventors kept the erythromycin/doxycycline concentration constant (0.625 μM for erythromycin, 0.078 μM (B. vulgates)/0.039 μM (B. uniformis) for doxycycline) and tested concentration gradients of the potential antagonists with ranges depending on the antagonist's solubility. Compounds were purchased from independent vendors and dissolved at 100× starting concentration in DMSO. Eight 2-fold serial dilutions were prepared in 96-well plates with each row containing a different antagonist, sufficient control DMSO wells and wells with just the respective antibiotic (‘antibiotic-only’ control). These master plates were diluted in MGAM medium (50 μl) to 2×assay concentration and 25 μl freshly prepared antibiotic solution (4× test concentration) was added. Plates were pre-reduced overnight in an anaerobic chamber and inoculated with 25 μl of overnight cultures (prepared as described under “Growth conditions”) to reach a starting OD578 of 0.01 and 1% DMSO concentration. Growth was monitored hourly for 24 h after 30 sec of linear shaking. Experiments were performed in biological triplicates. For analysis, growth curves were converted into normalized AUCs (see above). The inventors accounted for residual growth in the presence of the antibiotic by subtracting the median normalized AUCs of the ‘antibiotic-only’ control per plate.

[3] = test system: B. vulgatus; experiment: Prestwick library screen for microbiome-protective antibiotic antagonists (growth AUC z-scores); format: cell-based, Bacteroides vulgatus; conditions: Doxycycline 0.08 μM + 20 μM drug, z-score of normalized growth AUC, two replicates
[4] = test system: B. vulgatus; experiment: Validation of microbiome-protective antagonists (concentration-dependent growth rescue); format: cell-based, Bacteroides vulgatus; conditions: Doxycycline 0.078 μM constant, antagonist gradient, normalized AUC >0.25 = growth rescue
Experimental: as §1

[5] = test system: B. vulgatus; experiment: 8x8 checkerboard assay for anaerobic commensals (antibiotic vs antagonist); format: cell-based, Bacteroides vulgatus
From the text: Checkerboard assays for anaerobic commensals: Validated antagonists were further investigated in 8×8 checkerboard assays, where both antibiotics and antagonists were titrated against each other. Such assays were first performed for the commensals that were originally screened (i. e. B. vulgatus and B. uniformis—4 replicates) and later expanded towards 6 further gut microbes (B. caccae, B. fragilis NT, B. ovatus, B. thetaiotaomicron, P. copri, P. distasonis—2 replicates). For vertical gradients, 2-fold serial dilutions of the antagonists were prepared first in 100× in DMSO and diluted in MGAM as described above (section ‘Validation of microbiome-protective antagonists’). Horizontal antibiotic dilution series were freshly prepared in MGAM at 4× final concentration in equidistant concentration steps. Both, vertical and horizontal dilution series were combined (50 μl of the antagonist gradients (2×) and 25 μl of the antibiotic gradients (4×)) in 96 well plates. Plates were pre-reduced under anaerobic conditions overnight, inoculated with 25 μl of diluted overnight culture (at 4× starting OD) and sealed with breathable membrane (Breathe-Easy®). Bacterial growth was monitored once per hour for 24 hours after 30 sec linear shaking (Eon+Biostack 4, Biotek) under anaerobic conditions. Growth curves were converted into normalized AUCs as described using in-plate controls to define unperturbed growth.

[6] = test system: species of the order Bacteroidales; experiment: Antidote vs azithromycin across seven gut Bacteroidales (Example 4); format: cell-based; conditions: combination with azithromycin
Experimental: The antidotes dicumarol (first column), benzbromarone (second column) and tolfenamic acid (third column) were tested for their efficacy in antagonizing the macrolide antibiotic azithromycin across seven prevalent and abundant gut Bacteroidales (B. vulgatus, B. fragilis NT, B. thetaiotaomicron, P. copri, B. caccae, B. ovatus, P. distasonis). […] All drug concentrations are in μM.
In particular, they aimed at testing, whether these antidotes can also protect from other macrolides such as azithromycin, a clinically more relevant antibiotic.

[7] = test system: synthetic gut commensal community of seven human gut commensals; experiment: Synthetic gut commensal community growth with macrolide and antidote (Example 5); format: cell-based; conditions: erythromycin and azithromycin
From the text: Heat maps depict area under the growth curve (AUC) of a synthetic community consisting of seven human gut commensals. Shown is the median AUC of three individual replicates. All drug concentrations are in μM.
So far, antidote effects have only been analyzed in single or pure cultures. However, the human gut microbiome is a complex community of many different bacterial taxa that is usually not adequately mimicked in monocultures.

[8] = test system: E. faecalis; experiment: Antidote with macrolide on enterococci (Example 6); format: cell-based, Enterococcus faecalis
From the text: Heat maps show median area under the growth curve (AUC) of three biologically independent replicates. […] All drug concentrations are in μM.
Here, the inventors expanded testing towards additional antidotes, and included the intestinal human pathogen Enterococcus faecalis.

[9] = test system: E. faecium; experiment: Antidote with macrolide on enterococci (Example 6); format: cell-based
[10] = test system: seven-member synthetic community including the pathogen E. faecalis; experiment: E. faecalis-containing synthetic community, community growth AUC (Example 7); format: cell-based
From the text: (§2) Heat maps show median area under the growth curve (AUC) of the seven-member synthetic community including the pathogen E. faecalis. The numbers within the heat map represent the total number of all E. faecalis viable cells for each erythromycin-antidote combination as determined by enumerating of E. faecalis colony forming units after plating on selective medium. All drug concentrations are in μM. n. d.=not detectable.
(§3) The inventors exposed synthetic communities that contained the intestinal gut pathogen E. faecalis to erythromycin, and evaluated rescue of gut commensals and simultaneous killing of the pathogen in the presence of antidotes.

[11] = test system: E. faecalis; experiment: E. faecalis-containing synthetic community, E. faecalis CFU on selective medium (Example 7); format: cell-based, Enterococcus faecalis
From the text: as §2, §3

[12] = Erythromycin 0.625 μM + 20 μM drug
[13] = Doxycycline 0.04 μM + 20 μM drug
[14] = erythromycin 1.15 μM + 40 μM dicumarol or 20 μM benzbromarone

## CC[C@H](c1ccc(O)cc1)[C@@H](CC)c1ccc(O)cc1 [Hexestrol]
[1]; [12]
  Mean z-score: 9.630
[2]; Erythromycin 0.625 μM constant
  Validation: TRUE

## N#CC(c1ccc(Cl)cc1)c1c(Cl)cc(-n2ncc(=O)[nH]c2=O)cc1Cl (stereo not shown) [Diclazuril]
[3]
  Mean z-score: 3.117

## CCC(Cc1c(I)cc(I)c(N)c1I)C(=O)O (stereo not shown) [Iopanoic acid]
[3]
  Mean z-score: 5.698
[4]
  Validation: TRUE

## Oc1cc(Cl)ccc1Oc1ccc(Cl)cc1Cl [Triclosan]
[1]; [13]
  Mean z-score: 3.066
[2]; Doxycycline 0.039 μM constant
  Validation: FALSE

## CCCCc1nc(Cl)c(CO)n1Cc1ccc(-c2ccccc2-c2nn[nH]n2)cc1 [Losartan]
[1]; [13]
  Mean z-score: 3.421
[2]; Doxycycline 0.039 μM constant
  Validation: FALSE

## Cc1ccc(Cl)c(Nc2ccccc2C(=O)O)c1Cl [Meclofenamic acid sodium salt monohydrate]
[3]
  Mean z-score: 3.010

## O=C(O)c1cc(-c2ccc(F)cc2F)ccc1O [Diflunisal]
[3]
  Mean z-score: 3.265
[4]
  Validation: TRUE
[5]; combination with doxycycline
  rescue of B. vulgatus growth from doxycycline: rescued

## O=C1Nc2ccc(Cl)cc2[C@@](C#CC2CC2)(C(F)(F)F)O1 [Efavirenz]
[3]
  Mean z-score: 3.138

## CCc1oc2ccccc2c1C(=O)c1cc(Br)c(O)c(Br)c1 [Benzbromarone]
[1]; [12]
  Mean z-score: 6.034
[2]; Erythromycin 0.625 μM constant
  Validation: FALSE
[5]; combination with erythromycin
  rescue of B. vulgatus growth from erythromycin: can rescue the growth
[6]
  protection of Bacteroidales species from azithromycin: can be Protected
[7]
  protection (growth rescue) of synthetic gut commensal community from macrolide antibiotics: can be Protected
[8]
  interaction with antibacterial effects of erythromycin/azithromycin: synergized
  rescue from erythromycin or azithromycin treatment: Neither dicumarol nor benzbromarone or tolfenamic acid could rescue
[9]
  interaction with antibacterial effects of erythromycin/azithromycin: synergized
  rescue from erythromycin or azithromycin treatment: Neither dicumarol nor benzbromarone or tolfenamic acid could rescue
[10]; [14]
  community growth (AUC): the community is rescued
[10]; erythromycin + antidote
  rescue of the community despite erythromycin treatment: rescue of the community
[11]; [14]
  E. faecalis counts: drop/are still found at below the detection limit
[11]; erythromycin + antidote
  E. faecalis cells in community under erythromycin + antidote: efficiently inhibited

## CCCCCN(CCCCC)C(=O)C(CCC(=O)O)NC(=O)c1ccc(Cl)c(Cl)c1 (stereo not shown) [Lorglumide sodium salt]
[1]; [12]
  Mean z-score: 6.106
[2]; Erythromycin 0.625 μM constant
  Validation: TRUE

## Cc1ccc(-c2cc(C(F)(F)F)nn2-c2ccc(S(N)(=O)=O)cc2)cc1 [Celecoxib]
[1]; [13]
  Mean z-score: 3.275

## CC(C)c1c(CN(C)C(C)Cc2ccccc2)n(C)n(-c2ccccc2)c1=O (stereo not shown) [Famprofazone]
[1]; [12]
  Mean z-score: 7.832
[2]; Erythromycin 0.625 μM constant
  Validation: FALSE

## CC/C(=C(/CC)c1ccc(O)cc1)c1ccc(O)cc1 [Diethylstilbestrol]
[3]
  Mean z-score: 3.296
[1]; [12]
  Mean z-score: 9.258
[2]; Erythromycin 0.625 μM constant
  Validation: TRUE

## O=C(O)Cc1cc(I)c(Oc2ccc(O)c(I)c2)c(I)c1 [3,3′,5-triiodothyroacetic acid]
[1]; [13]
  Mean z-score: 4.333
[2]; Doxycycline 0.039 μM constant
  Validation: TRUE
